According to patent US20160316791A1, “METHOD TO PROTECT LIPOPHILIC NUTRIENTS AGAINST RUMINAL DEGRADATION” (UNIVERSITEIT GENT, priority 2013, published 2016):

Tested on: dairy cows
Assay: In vivo protection and transfer of t10c12-CLA to milk, milk fat content
Settings: 7 g per cow daily; FIG. 9
Experimental: Eight dairy cows in mid-lactation (100 to 220 days in milk, 562 to 712 kg live weight, minimum daily production of 20 to 25 kg milk) were used in a sequential set-up to test the in vivo protection of fatty acids and transfer to the milk. Two supplements were tested: First, a protected fatty acid emulsion, prepared according to Example 1, was administered (n=4). This product consisted of a protein extract from potato tuber peels, which was further used to emulsify a commercially available triacylglyceride mixture of cis-9, trans-11 and trans-10, cis-12 conjugated linoleic acid (t10c12-CLA) (TONALIN® TG80, BASF-AG, Ludwigshafen, Germany) and protected against rumen degradation through the creation of protein-phenol complexes by addition of 4-methylcatechol. The degree of rumen bypass of t10c12 CLA was assessed in vitro as described in Example 1 before the start of the in vivo trial. […]
The experimental period consisted of six weeks. […] Milk fat content was determined by Fourier Transform Infrared analysis (FTIR Delta Instruments, Drachten, The Netherlands) and fatty acids determined as described by Jorjong et al.^(19) Milk fat is presented as percentage of the total mass of milk produced per day and t10c12-CLA as g per 100 g of fatty acids detected.

- transfer of dietary t10c12-CLA to the milk: up to 5%
SMILES: CCCCC/C=C\C=C\CCCCCCCCC(=O)O [t10c12-CLA, trans-10, cis-12 conjugated linoleic acid]
